Data as given in patent US5164399A, “Rapamycin pyrazoles” (American Home Products Corporation, priority 1991, dated 1992).
pIC50: −log10 of the molar value. Like-named read-outs stand apart in the source and are kept apart here.

Experiments:
[1] = system: cells from the thymus of normal BALB/c mice (lymphocyte proliferation); assay: comitogen-induced thymocyte proliferation procedure (LAF); assay type: cell-based; settings: Mus musculus; for inhibition at 0.1 µM: read-out: LAF percent inhibition at 100 nM
Experimental: (§1) Immunosuppressive activity was evaluated in an in vitro standard pharmacological test procedure to measure lymphocyte proliferation (LAF) and in two in vivo standard pharmacological test procedures. The first in vivo procedure was a popliteal lymph node (PLN) test procedure which measured the effect of compounds of this invention on a mixed lymphocyte reaction and the second in vivo procedure evaluated the survival time of a pinch skin graft.
Briefly, cells from the thymus of normal BALB/c mice are cultured for 72 hours with PHA and IL-1 and pulsed with tritiated thymidine during the last six hours. […] Cells are harvested and incorporated; radioactivity is determined. Inhibition of lymphoproliferation is assessed in percent change in counts per minute from non-drug treated controls. The results are expressed as the IC50, expressed in nM, or as the percent inhibition at 100 nM.

pinch skin graft = assay: survival time of pinch skin graft; assay type: in vivo, male BALB/c mice recipients (male DBA/2 donors); settings: intraperitoneally
Experimental: as §1
The second in vivo test procedure is designed to determine the survival time of pinch skin graft from male DBA/2 donors transplanted to male BALB/c recipients. The method is adapted from Billingham R. E. and Medawar P. B., J. Exp. Biol. 28: 385-402, (1951). Briefly, a pinch skin graft from the donor is grafted on the dorsum of the recipient as a homograft, and an autograft is used as control in the same region. […] Untreated recipients serve as rejection control. The graft is monitored daily and observations are recorded until the graft becomes dry and forms a blackened scab. This is considered as the rejection day. The mean graft survival time (number of days±S.D.) of the drug treatment group is compared with the control group.

[2] = system: popliteal lymph nodes (mixed lymphocyte reaction); assay: in vivo popliteal lymph node (PLN) test procedure (mixed lymphocyte reaction); design: species or system C3H mice (BALB/c donors)
Experimental: as §1
A mixed lymphocyte reaction (MLR) occurs when lymphoid cells from genetically distinct animals are combined in tissue culture. Each stimulates the other to undergo blast transformation which results in increased DNA synthesis that can be quantified by the incorporation of tritiated thymidine. Since stimulating a MLR is a function of disparity at Major Histocompatibility antigens, an in vivo popliteal lymph node (PLN) test procedure closely correlates to host vs. graft disease. Briefly, irradiated spleen cells from BALB/c donors are injected into the right hind foot pad of recipient C3H mice. […] On Day 3 and Day 4, tritiated thymidine is given i.p., b.i.d. On Day 5, the hind popliteal lymph nodes are removed and dissolved, and radioactivity counted. The corresponding left PLN serves as the control for the PLN from the injected hind foot. Percent suppression is calculated using the non-drug treated animals as allogenic control. […]

Candida albicans [3] = settings: cited from earlier work
organ grafts = settings: histoincompatible rodents; cited from earlier work
Candida albicans [4] = settings: cited from earlier work; remark: listed apart in the source
[5] = thymocytes, PHA and IL-1, 72 hours, tritiated thymidine, read-out: LAF IC50

| Compound | inhibition at 0.1 µM [1] [%] | pIC50 [1, 5] | Skin Graft (days ± SD), mean graft survival time (pinch skin graft) [days] | pIC50 ([1]; read-out: LAF IC50 of rapamycin as a control for Example 1) | PLN suppression ([2]; 6 mg/kg, p.o.) [%] | antifungal activity in vitro (Candida albicans [3]) | prolongation of survival time of organ grafts (organ grafts) | antifungal activity in vivo (Candida albicans [4]) | PLN (ratio) ([2]; i.p. daily Day 0 to Day 4, ratio as defined) |
| --- | --- | --- | --- | --- | --- | --- | --- | --- | --- |
| CO[C@@H]1C(=O)/C(C)=C/[C@@H](C)C(=O)C[C@@H]([C@H](C)C[C@@H]2CC[C@@H](O)[C@H](OC)C2)OC(=O)[C@@H]2CCCCN2C(=O)C(=O)[C@]2(O)O[C@@H](CC[C@H]2C)C[C@H](OC)/C(C)=C/C=C/C=C/[C@@H](C)C[C@@H](C)C1=O [Example 1, 31-Deoxy-31-oxorapamycin] | 41 | 7.07 | 9.16 ± 0.47 | – | – | – | – | – | – |
| CO[C@H]1C[C@@H]2CC[C@@H](C)[C@@](O)(O2)C(=O)C(=O)N2CCCC[C@H]2C(=O)O[C@H]([C@H](C)C[C@@H]2CC[C@@H](O)[C@H](OC)C2)CC(=O)[C@H](C)/C=C(\C)[C@@H](O)[C@@H](OC)C(=O)[C@H](C)C[C@H](C)/C=C/C=C/C=C/1C [Rapamycin, rapamycin] | 94 | – | 11.66 ± 0.47 | 9.70 | 86 | antifungal activity | prolong survival time | antifungal activity | – |
| COc1c2n[nH]c1[C@H](C)C[C@H](C)/C=C/C=C/C=C(\C)[C@@H](OC)C[C@@H]1CC[C@@H](C)[C@@](O)(O1)C(=O)C(=O)N1CCCC[C@H]1C(=O)O[C@H]([C@H](C)C[C@@H]1CC[C@@H](O)[C@H](OC)C1)CC(=O)[C@H](C)/C=C/2C [Example 3, 33-Deoxo-31-deoxy-31,33-(1-hydrazinyl-2-ylidene)rapamycin] | – | 6.69 | – | – | – | – | – | – | 0.52 |
| CO[C@@H]1C(=O)/C(C)=C/[C@@H](C)C(=O)C[C@@H]([C@H](C)C[C@@H]2CCC(=O)[C@H](OC)C2)OC(=O)[C@@H]2CCCCN2C(=O)C(=O)[C@]2(O)O[C@@H](CC[C@H]2C)C[C@H](OC)/C(C)=C/C=C/C=C/[C@@H](C)C[C@@H](C)C1=O [Example 2, 31,42-Dideoxy-31,42-dioxorapamycin] | 4 | – | – | – | – | – | – | – | – |
